Assay results from ChEMBL document CHEMBL3988181, “GlaxoSmithKline Published Kinase Inhibitor Set 2 Onchocerca lienalis Screening Data”.
“And” between values parts separate entries of the source, which are not always exact repeats. Equal entries are not always repeated.

Experiment: GSK PKIS2: Screen against O. lienalis microfilariae, single point, at 3.1uM to assess reduction in motility. Compounds were also tested for cytotoxicity against Rhesus Monkey LLCMK2 cells.
Assay type: functional, Onchocerca lienalis, LLC-MK2
Conditions: CELL_LINE LLCMK2; CELL_SUPPLIER ECACC; CONC 3.1 uM; ORGANISM_SUPPLIER Extracted from peri-umbilical skin obtained from naturally infected cattle in the UK; temperature 37 degree C

`CNc1nccc(-c2c(-c3ccc(F)cc3)ncn2CCCN2CCOCC2)n1` and `Cc1nccc(-c2c(-c3ccc(F)cc3)ncn2CCCN2CCOCC2)n1` are the same in “MOTILITY REDUCTION/CYTOTOXICITY” value: 0% for the first, 0% for the second.

`O=C(NCc1cccs1)c1cc(C(=O)c2c(Cl)cccc2Cl)c[nH]1` and `O=C1NC(=O)C(c2ccccc2Cl)=C1Nc1cccc(C(=O)O)c1` are the same in “MOTILITY REDUCTION/CYTOTOXICITY” value: 0% for the first, 0% for the second.

`Fc1ccc(-c2ncn(C3CCNCC3)c2-c2ccnc(Oc3ccc(-c4ccccc4)cc3)n2)cc1` and `Fc1ccc(-c2ncn(C3CCNCC3)c2-c2ccnc(Nc3ccccc3)n2)cc1` are the same in “MOTILITY REDUCTION/CYTOTOXICITY” value: 0% for the first, 0% for the second.

Going from `COc1cccc(C2=C(N(C)c3ccccc3)C(=O)NC2=O)c1` to `COc1cccc(C2=C(Nc3cccc(O)c3)C(=O)NC2=O)c1`, the “MOTILITY REDUCTION/CYTOTOXICITY” value rises from 0% to 13.4%.

First: O=C1NC(=O)C(N2CCc3ccccc32)=C1c1ccccc1Cl
Second: O=C1NC(=O)C(N2CCc3ccccc32)=C1c1cccc(Cl)c1
The “MOTILITY REDUCTION/CYTOTOXICITY” value of the first is higher: 20% for the first, 0% for the second.

Compared with `COc1ccc(C2=C(Nc3cccc(C(=O)O)c3)C(=O)NC2=O)cc1`, `COc1ccc(C2=C(Nc3cccc(O)c3)C(=O)NC2=O)cc1` is lower in “MOTILITY REDUCTION/CYTOTOXICITY” value: 20% for the first, 13.4% for the second.

`O=C1NC(=O)C(c2ccc(Cl)cc2)=C1Nc1ccc(O)cc1` and `CSc1ccc(NC2=C(c3ccc(Cl)cc3)C(=O)NC2=O)cc1` are the same in “MOTILITY REDUCTION/CYTOTOXICITY” value: 0% for the first, 0% for the second.

Compared with `COc1ccc(C2=C(Nc3cccc(Cl)c3)C(=O)NC2=O)cc1`, `O=C1NC(=O)C(c2ccc(Cl)cc2)=C1Nc1cccc(Cl)c1` is higher in “MOTILITY REDUCTION/CYTOTOXICITY” value: 0% for the first, 33.4% for the second.

`COc1cccc(C2=C(Nc3ccc(SC)cc3)C(=O)NC2=O)c1` and `COc1cccc(C2=C(Nc3cccc(Cl)c3)C(=O)NC2=O)c1` are the same in “MOTILITY REDUCTION/CYTOTOXICITY” value: 0% for the first, 0% for the second.

Compared with `COc1ccccc1C1=C(Nc2cccc(O)c2)C(=O)NC1=O`, `O=C1NC(=O)C(c2ccc(Cl)cc2)=C1Nc1cccc(O)c1` is lower in “MOTILITY REDUCTION/CYTOTOXICITY” value: 100% for the first, 13.4% for the second.

`Nc1nc(Nc2ccccc2)cc(-c2ccc3c(N)n[nH]c3c2)n1` and `Nc1n[nH]c2nnc(-c3ccccc3)cc12` are the same in “MOTILITY REDUCTION/CYTOTOXICITY” value: 0% for the first, 0% for the second.

`COCCNC(=O)c1ccc(-c2cc(C(=O)NC3CC3)cc(F)c2C)cc1` and `O=C(NCC1CC1)c1ccc(-c2cc(C(=O)NC3CC3)ccc2F)cc1` are the same in “MOTILITY REDUCTION/CYTOTOXICITY” value: 0% for the first, 0% for the second.

Compared with `CN(c1ccc(NC(=O)Nc2cc(C(F)(F)F)ccc2F)cc1)c1ccnc(Nc2ccc(S(N)(=O)=O)cc2)n1`, `Nc1ncnc2occ(-c3ccc(NC(=O)Nc4cc(C(F)(F)F)ccc4F)cc3)c12` [GW770249X] is lower in “MOTILITY REDUCTION/CYTOTOXICITY” value: 100% for the first, 0% for the second.

`CCn1c(-c2ccoc2)nc2cnccc21` and `CCn1c(-c2ccccc2)nc2cnccc21` are the same in “MOTILITY REDUCTION/CYTOTOXICITY” value: 0% for the first, 0% for the second.

`CN(C(=O)c1ccc(-c2cc(-c3c[nH]nc3-c3ccccn3)ccn2)cc1)C1CCOCC1` and `CN(C)CCOc1ccc(-c2cc(-c3c[nH]nc3-c3ccccn3)ccn2)cc1` are the same in “MOTILITY REDUCTION/CYTOTOXICITY” value: 0% for the first, 0% for the second.

Going from `NC(=O)Nc1sc(-c2ccc(F)cc2)cc1C(N)=O` to `O=C(Nc1n[nH]c2cc(-c3cccc(F)c3)ccc12)C1CC1`, the “MOTILITY REDUCTION/CYTOTOXICITY” value falls from 33.4% to 0%.

First: O=C(Nc1n[nH]c2nc(-c3ccccc3)c(Br)cc12)C1CC1
Second: O=C(Nc1n[nH]c2nc(-c3ccccc3)ccc12)C1CC1
The “MOTILITY REDUCTION/CYTOTOXICITY” value of the first is higher: 20% for the first, 0% for the second.

`CCCC(=O)Nc1n[nH]c2ncc(-c3cccc4ccccc34)cc12` and `CC(=O)Nc1n[nH]c2ncc(-c3ccccc3)cc12` are the same in “MOTILITY REDUCTION/CYTOTOXICITY” value: 0% for the first, 0% for the second.

`O=C(Nc1n[nH]c2nc(-c3ccccc3O)ccc12)C1CC1` and `COc1ccccc1-c1ccc2c(NC(=O)C3CC3)n[nH]c2n1` are the same in “MOTILITY REDUCTION/CYTOTOXICITY” value: 0% for the first, 0% for the second.

`O=C(Nc1n[nH]c2cc(-c3ccsc3)ccc12)C1CC1` and `O=C(Nc1n[nH]c2cc(-c3cccs3)ccc12)C1CC1` are the same in “MOTILITY REDUCTION/CYTOTOXICITY” value: 0% for the first, 0% for the second.

`CC(C)(C)c1ccc(-n2cnc3c(N)ncnc32)cc1` and `COc1cccc(-n2cnc3c(N)ncnc32)c1` are the same in “MOTILITY REDUCTION/CYTOTOXICITY” value: 0% for the first, 0% for the second.

`Nc1ncnc2c1ncn2-c1cccc2ccccc12` and `Nc1ncnc2c1nc(-c1ccccc1)n2-c1ccccc1` are the same in “MOTILITY REDUCTION/CYTOTOXICITY” value: 0% for the first, 0% for the second.

First: O=C(Nc1n[nH]c2nc(-c3ccco3)c(Br)cc12)C1CCN(Cc2ccccc2)C1 (stereo not given)
Second: O=C(Nc1n[nH]c2nc(-c3cccs3)c(Br)cc12)C1CCCC1
The “MOTILITY REDUCTION/CYTOTOXICITY” value of the first is higher: 33.4% for the first, 0% for the second.

`CCOc1nccc(-c2c(-c3ccc(F)cc3)ncn2C2CCNCC2)n1` and `Nc1nccc(-c2c(-c3ccc(F)cc3)ncn2C2CCN(Cc3ccccc3)CC2)n1` are the same in “MOTILITY REDUCTION/CYTOTOXICITY” value: 0% for the first, 0% for the second.

`COc1cccc(C2=C(Nc3cccc(C(=O)O)c3)C(=O)NC2=O)c1` and `COc1cccc(C2=C(Nc3ccc(Cl)c(C(=O)O)c3)C(=O)NC2=O)c1` are the same in “MOTILITY REDUCTION/CYTOTOXICITY” value: 0% for the first, 0% for the second.

`CN1C(=O)C(Nc2ccc(Cl)c(C(=O)O)c2)=C(c2ccc(Cl)cc2)C1=O` and `O=C1NC(=O)C(c2ccccc2)=C1Nc1cc(Cl)c(O)c(Cl)c1` are the same in “MOTILITY REDUCTION/CYTOTOXICITY” value: 0% for the first, 0% for the second.

Compared with `Fc1ccc(Nc2nccc(-c3c(-c4ccc(Cl)cc4)nn4ncccc34)n2)cc1F`, `FC(F)(F)c1cc(Br)cc(Nc2nccc(-c3cnn4ncccc34)n2)c1` is higher in “MOTILITY REDUCTION/CYTOTOXICITY” value: 0% for the first, 46.7% for the second.

Compared with `CCn1c(-c2cccnc2O)nc2cnccc21`, `CCn1c(-c2ccccn2)nc2cnccc21` is lower in “MOTILITY REDUCTION/CYTOTOXICITY” value: 13.4% for the first, 0% for the second.

`COc1cc2ncn(-c3cc(OCc4ccncc4Br)c(C(N)=O)s3)c2cc1OC` and `Cc1ccccc1COc1cc(-n2cnc3cc(Cl)ccc32)sc1C(N)=O` are the same in “MOTILITY REDUCTION/CYTOTOXICITY” value: 0% for the first, 0% for the second.

First: Nc1ncnc2scc(-c3ccc(NC(=O)Cc4cc(F)ccc4F)cc3)c12.O=C(O)C(F)(F)F
Second: CN(c1ccc(NC(=O)Nc2cccc(Cl)c2)cc1)c1ccnc(N)n1
The “MOTILITY REDUCTION/CYTOTOXICITY” value of the first is higher: 40% for the first, 13.4% for the second.

`O=C(Nc1n[nH]c2nc(-c3nccs3)c(Br)cc12)C1CCCC1` and `CCN1CCN(CCCC(=O)Nc2n[nH]c3nc(-c4ccc(O)cc4)c(Br)cc23)CC1` are the same in “MOTILITY REDUCTION/CYTOTOXICITY” value: 20% for the first, 20% for the second.

Going from `O=C(Nc1n[nH]c2cc(-c3ccco3)ccc12)C1CC1` to `COc1ccc(NC(=O)c2ccoc2)cc1-c1ccc(C(=O)NCC2CC2)cc1`, the “MOTILITY REDUCTION/CYTOTOXICITY” value rises from 0% to 13.4%.

Going from `Cc1ccc(NC(=O)c2ccnc(N3CCCCC3)c2)cc1-c1ccc(C(=O)NCC2CC2)cc1` to `Cc1ccc(C(=O)NC2CCCC2)cc1-c1ccc(C(=O)NCC2CC2)cc1`, the “MOTILITY REDUCTION/CYTOTOXICITY” value rises from 0% to 20%.

`Fc1ccc(-c2nn3cccc(F)c3c2-c2ccncc2)cc1` and `Oc1ccc(-c2[nH]c(-c3ccccc3)nc2-c2ccncc2)cc1` are the same in “MOTILITY REDUCTION/CYTOTOXICITY” value: 0% for the first, 0% for the second.

First: CN(C)CC(O)COc1ccc(Nc2nccc(-c3cnn4nc(N5CCOCC5)ccc34)n2)cc1 (stereo not given)
Second: CCN(CC)CCOc1ccc(Nc2ncc3cc(-c4c(Cl)cccc4Cl)c(=O)n(C)c3n2)cc1 [PD-0166285]
The “MOTILITY REDUCTION/CYTOTOXICITY” value of the first is lower: 0% for the first, 33.4% for the second.

Compared with `CN(C)CCN(C)C(=O)c1cc(-c2ccncc2)c(-c2ccc(Cl)c(O)c2)o1`, `Clc1cccc(-c2nc(Nc3ccncc3)c3ccccc3n2)c1` is lower in “MOTILITY REDUCTION/CYTOTOXICITY” value: 20% for the first, 0% for the second.

First: Cc1csc(-c2nc(Nc3ccncc3)c3ccccc3n2)n1
Second: Cc1cccc(-c2nc(Nc3ccncc3)c3sccc3n2)n1
The “MOTILITY REDUCTION/CYTOTOXICITY” value of the first is lower: 33.4% for the first, 46.7% for the second.

`Cc1cccc(-c2nc(Nc3ccc4c(cnn4C)c3)c3ccccc3n2)n1` and `Cc1cccc(-c2nc(Nc3ccc4ncsc4c3)c3ccccc3n2)n1` are the same in “MOTILITY REDUCTION/CYTOTOXICITY” value: 100% for the first, 100% for the second.

Going from `Cc1cccc(-c2nc(Nc3cccc(C(N)=O)c3)c3ccccc3n2)n1` to `Cc1ccc(O)cc1Nc1ccnc2ccc(C(C)(C)C)cc12`, the “MOTILITY REDUCTION/CYTOTOXICITY” value rises from 46.7% to 100%.

`CCC(CC)(CC)n1cnc2c(N)ncnc21` and `Nc1ncnc2[nH]c(-c3ccccc3)nc12` are the same in “MOTILITY REDUCTION/CYTOTOXICITY” value: 0% for the first, 0% for the second.

First: C=CC(=O)Nc1cc2c(Nc3ccc(F)c(Cl)c3)ncnc2cc1OCCCN1CCOCC1 [CANERTINIB]
Second: Cc1ccc(-n2nc(C(C)(C)C)cc2NC(=O)Nc2ccc(OCCN3CCOCC3)c3ccccc23)cc1 [DORAMAPIMOD]
The “MOTILITY REDUCTION/CYTOTOXICITY” value of the first is lower: 0% for the first, 33.4% for the second.

`CN(C)c1ncnc2nc[nH]c12` [DIMETHYLADENINE] and `CCn1c(-c2nonc2N)nc2ccccc21` [GW549034X] are the same in “MOTILITY REDUCTION/CYTOTOXICITY” value: 0% for the first, 0% for the second.

Same assay, conditions: CELL_LINE LLCMK2; CELL_SUPPLIER ECACC; CONC 3.1 uM; ORGANISM_SUPPLIER Extracted from peri-umbilical skin obtained from naturally infected cattle in the UK; temperature 37 degree C; 3.1 µM

For `CSc1nn2c(=O)cc(N3CCOCC3)nc2n1Cc1cccc(C(F)(F)F)c1C`, the “MOTILITY REDUCTION/CYTOTOXICITY” value was 16.7% and 0%.
